Key:
L929 fibroblasts = assay: Annexin V/PI apoptosis, normal cell line; type: cell-based; conditions: L929 fibroblasts cultured under attached conditions
A549 CSC = conditions: stated as known; cited from earlier work

Substance: ceramide [free ceramide]
- apoptosis in normal cells (L929 fibroblasts): neither free ceramide nor G5C3 cause significant apoptosis
- resistance of A549 CSC (A549 CSC): resistant to free ceramide

Reference: US20220257514A1, “MONOSACCHARIDE-TAGGED NANO-LIPOSOME DRUG DELIVERY SYSTEM, THE MANUFACTURE AND USE FOR DRUG TARGETING DELIVERY THEREOF” (National Yang Ming Chiao Tung University, priority 2019, published 2022)
